Experimental data reported in US8877799B2, “Inorganic salt complexes of vildagliptin” (Egis Gyogyszergynar Nyilvanosan Muekoedoe Reszvenytarsasag, priority 2009, dated 2014).

Tests used:
[1] = in water, after three days; pages 44 to 45 of WO 2007019255; cited from earlier work
[2] = compressibility; assay type: physicochemical

Compound | active ingredient detectable [1] [%] | compressibility compared with vildagliptin base [2]
N#C[C@@H]1CCCN1C(=O)CNC12CC3CC(CC(O)(C3)C1)C2 [vildagliptin base, 1-[2-(3-hydroxyadamant-1-yl-amino)acetyl]pyrrolidin-(2S)-carbonitrile] | 7.5 | 
Vildagliptin Calcium(II)-Chloride Trihydrate Complex (1:1:3) |  | compressed significantly more preferably than the vildagliptin base
